Structures are written as SMILES. “And” between values parts separate entries of the source, which are not always exact repeats. Equal values may be shown once.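 Following 48 hours of exposure in 96-well plates, responses at five concentrations were used to interpolate endpoints linearly. Abbreviation: GI50, concentration required for 50% inhibition of growth. TGI marks complete inhibition of growth.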 A value given as a limit tells only on which side of the number the result lay.

One experiment deals with A498 renal. Briefly: DTP human tumour cell line panel, 48 h.
By GI50 is commonly meant the concentration at which growth is held to half of that of the control. One may read the TGI as the concentration at which net growth stops. A lower TGI goes with greater sensitivity of the cells. Consider `C[C@]12CCc3sc(Nc4ccc(OC(F)(F)F)cc4)nc3C1=CC[C@@H]1[C@@H]2CC[C@]2(C)C(=O)CC[C@@H]12`, for which the GI50 was 2.09 µM and the TGI was determined as 5.77 µM.

For the compound `CCN1C(=O)c2ccc3c4c(ccc(c24)C1=O)C(=O)N(CCCNCc1ccccc1OC)C3=O`, the GI50 is 0.383 µM and the TGI came to 1.99 µM.

Consider `O=C(/C=C/c1ccccc1)Nc1ncc(Cc2ccccc2Cl)s1`, for which the GI50 was 0.176 µM and the concentration for total growth inhibition (TGI) worked out at 0.68 µM.

Take `CN(c1ccc(NC(=O)Nc2c(Cl)cccc2Cl)cc1)c1ccnc(Nc2cccc(CS(C)(=O)=O)c2)n1`: the GI50 was 4.4 µM and the TGI was above 20.3 µM.

Compound `CCCCCCCCCCCCCCCCCCOC[C@H](COP(=O)(O)O[C@H]1[C@H](O)[C@@H](O)[C@H](O)C[C@H]1O)OC` registered a TGI above 100 µM.

Take `CN(C)C/C=C/C(=O)Nc1ccc(C(=O)N[C@@]2(C)CCC[C@@H](Nc3ncc(Cl)c(-c4c[nH]c5ccccc45)n3)C2)nc1`: the GI50 was 0.0189 µM and the TGI was 0.0621 µM.

Regarding `Nc1n[nH]c2cccc(C#Cc3cccc(NC(=O)c4cccc(C(F)(F)F)c4)c3)c12`, the GI50 is 2.41 µM and the TGI is 5.57 µM.

In the case of `CCCCCCCCn1ccc2cc(NC(=O)Cn3cc(CN4CCCCCC4)nn3)ccc21`, the GI50 is 1.76 µM and the TGI turned out to be 3.2 µM.

With `COCCOC(=O)C1=C(O)c2ccccc2S(=O)(=O)N1C`, the total growth inhibition concentration (TGI) is above 100 µM.

For the compound `CNC(=O)OCc1nc(SSC(C)(C)C)n(C)c1COC(=O)NC`, the TGI came out at 20.4 µM.

`CC(C)C(O)(C(C)C)C(C)C` registered a TGI above 100 µM.

Turning to `CC(C)CNc1nc(-c2ccccc2Cl)nc2ccccc12`, the GI50 is 18.5 µM and the TGI was found to be 32.6 µM.

`CN(C)CCOc1ccc([N+](=O)[O-])c2cccnc12`: the TGI was above 100 µM.

`O=C(O)CSCCc1ccccc1`: the TGI was above 100 µM.

As to `COc1ccc2c(c1)C(=O)/C(=C/c1cccc(OCC(=O)c3ccccc3)c1)O2`, the GI50 is 17.3 µM and the TGI worked out at 31 µM.

In the case of `Cc1ccc(S(=O)(=O)N=Nc2c(O)[nH]c3cc(O)c(C(=O)O)cc23)cc1`, the TGI was above 100 µM.

Compound `O=C(O)CCCc1ccc2ccc3ccccc3c2c1` gave a TGI above 100 µM.

On to `CNC(=O)OCc1c(COC(=O)NC)c(-c2ccc(-c3ccccc3)cc2)n(C)c1C`, for which the total growth inhibition concentration (TGI) was 2.39 µM.

The next experiment deals with SF-539 CNS. Briefly: DTP human tumour cell line panel, 48 h.
Turning to `C[C@]12CCc3sc(Nc4ccc(OC(F)(F)F)cc4)nc3C1=CC[C@@H]1[C@@H]2CC[C@]2(C)C(=O)CC[C@@H]12`, the GI50 is 1.05 µM and the TGI was determined as 2.72 µM.

As to `CCN1C(=O)c2ccc3c4c(ccc(c24)C1=O)C(=O)N(CCCNCc1ccccc1OC)C3=O`, the GI50 is 1.16 µM and the TGI amounted to 2.47 µM.

On to `O=C(/C=C/c1ccccc1)Nc1ncc(Cc2ccccc2Cl)s1`, for which the GI50 is 0.223 µM and the TGI worked out at 0.634 µM.

Take `CN(c1ccc(NC(=O)Nc2c(Cl)cccc2Cl)cc1)c1ccnc(Nc2cccc(CS(C)(=O)=O)c2)n1`: the GI50 is 0.304 µM and the TGI was 6.4 µM.

As to `CCCCCCCCCCCCCCCCCCOC[C@H](COP(=O)(O)O[C@H]1[C@H](O)[C@@H](O)[C@H](O)C[C@H]1O)OC`, the GI50 was > 100 µM and 16.2 µM; the TGI is > 100 µM and 31 µM.

Consider `CN(C)C/C=C/C(=O)Nc1ccc(C(=O)N[C@@]2(C)CCC[C@@H](Nc3ncc(Cl)c(-c4c[nH]c5ccccc45)n3)C2)nc1`, for which the GI50 is 0.0195 µM and the TGI was 0.0929 µM.

For `Nc1n[nH]c2cccc(C#Cc3cccc(NC(=O)c4cccc(C(F)(F)F)c4)c3)c12`, the GI50 is 1.19 µM and the TGI was found to be 3.47 µM.

`CCCCCCCCn1ccc2cc(NC(=O)Cn3cc(CN4CCCCCC4)nn3)ccc21`: the GI50 is 1.76 µM and the TGI stood at 3.21 µM.

`COCCOC(=O)C1=C(O)c2ccccc2S(=O)(=O)N1C` gave a TGI above 100 µM.

Turning to `CNC(=O)OCc1nc(SSC(C)(C)C)n(C)c1COC(=O)NC`, the TGI came to 10.6 µM.

On to `CC(C)C(O)(C(C)C)C(C)C`, for which the TGI is above 100 µM.

In turn, `CN(C)CCOc1ccc([N+](=O)[O-])c2cccnc12` returned a TGI above 100 µM.

Compound `O=C(O)CSCCc1ccccc1` yielded a TGI above 100 µM.

Consider `CC(C)(C)c1cc([N+](=O)[O-])cc([N+](=O)[O-])c1O`, for which the TGI is above 10 µM.

Consider `COc1ccc2c(c1)C(=O)/C(=C/c1cccc(OCC(=O)c3ccccc3)c1)O2`, for which the GI50 is 3.79 µM and the TGI stood at 13.8 µM.

For the compound `CNC(=O)OCc1c(COC(=O)NC)c(-c2ccc(-c3ccccc3)cc2)n(C)c1C`, the TGI was 8.37 µM.

In turn, `CSC(SC)(C(=O)O)c1cc(-c2c(Cl)cccc2Cl)no1` displayed a TGI above 100 µM.

The next experiment deals with CCRF-CEM leukemia. Briefly: DTP human tumour cell line panel, 48 h.
Regarding `C[C@]12CCc3sc(Nc4ccc(OC(F)(F)F)cc4)nc3C1=CC[C@@H]1[C@@H]2CC[C@]2(C)C(=O)CC[C@@H]12`, the GI50 is 1.42 µM and the TGI is above 100 µM.

As to `CCN1C(=O)c2ccc3c4c(ccc(c24)C1=O)C(=O)N(CCCNCc1ccccc1OC)C3=O`, the GI50 is 0.793 µM and the TGI was 9.41 µM.

For `O=C(/C=C/c1ccccc1)Nc1ncc(Cc2ccccc2Cl)s1`, the concentration for 50% growth inhibition (GI50) is 0.36 µM and the TGI is above 100 µM.

For `CN(c1ccc(NC(=O)Nc2c(Cl)cccc2Cl)cc1)c1ccnc(Nc2cccc(CS(C)(=O)=O)c2)n1`, the GI50 was 0.109 µM and the TGI was above 25 µM.

As for `CCCCCCCCCCCCCCCCCCOC[C@H](COP(=O)(O)O[C@H]1[C@H](O)[C@@H](O)[C@H](O)C[C@H]1O)OC`, the TGI is 12.7 µM and 46 µM.

Turning to `CN(C)C/C=C/C(=O)Nc1ccc(C(=O)N[C@@]2(C)CCC[C@@H](Nc3ncc(Cl)c(-c4c[nH]c5ccccc45)n3)C2)nc1`, the GI50 is below 0.01 µM and the total growth inhibition concentration (TGI) was determined as 1.3 µM.

In the case of `Nc1n[nH]c2cccc(C#Cc3cccc(NC(=O)c4cccc(C(F)(F)F)c4)c3)c12`, the GI50 is 2.69 µM and the TGI was 15.9 µM.

As for `CCCCCCCCn1ccc2cc(NC(=O)Cn3cc(CN4CCCCCC4)nn3)ccc21`, the GI50 is 2.25 µM and the TGI was found to be 7.41 µM.

For the origin of these results see PubChem BioAssay (NCI).
